Results as given in ChEMBL document CHEMBL4118044, “Manzamine Alkaloids from an Acanthostrongylophora sp. Sponge” (J Nat Prod, 2017).
Converted amounts (≈) assume the structure as drawn.

Assays:
[1] = tested on: Proteus hauseri; assay: Antibacterial activity against Proteus hauseri NBRC 3851 after 24 hrs by serial two fold dilution method; assay type: functional; details: NBRC 3851, 24 h
[2] = tested on: A549; assay: Cytotoxicity against human A549 cells by MTT assay; assay type: functional; details: read-out: LC50 (the source's name)
[3] = molecular target: T1, Sortase A (Staphylococcus aureus, UniProt Q9S446); assay: Inhibition of Staphylococcus aureus ATCC 6538p SortA expressed in Escherichia coli using Dabcyl-QALPETGEE-Edans as substrate after 1 hr by fluorescence spectrophotometric method
T1 sequence (Q9S446 whole entry): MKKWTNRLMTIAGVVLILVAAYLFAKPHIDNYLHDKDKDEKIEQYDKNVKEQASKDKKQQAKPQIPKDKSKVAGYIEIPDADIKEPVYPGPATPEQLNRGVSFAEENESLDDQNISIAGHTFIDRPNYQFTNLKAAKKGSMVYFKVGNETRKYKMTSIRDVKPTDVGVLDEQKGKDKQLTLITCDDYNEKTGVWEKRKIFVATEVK

[4] = tested on: Salmonella typhimurium; assay: Antibacterial activity against Salmonella enterica ATCC 14028 after 24 hrs by serial two fold dilution method; assay type: functional, Salmonella enterica subsp. enterica serovar Typhimurium; details: ATCC 14028, 24 h
[5] = tested on: Bacillus spizizenii; assay: Antibacterial activity against Bacillus subtilis ATCC 6633 after 24 hrs by serial two fold dilution method; assay type: functional; details: ATCC 6633, 24 h
[6] = tested on: Escherichia coli; assay: Antibacterial activity against Escherichia coli ATCC 35270 after 24 hrs by serial two fold dilution method; assay type: functional; details: ATCC 35270, 24 h
[7] = tested on: Staphylococcus aureus; assay: Antibacterial activity against Staphylococcus aureus ATCC 6538p after 24 hrs by serial two fold dilution method; assay type: functional
[8] = tested on: Kocuria rhizophila; assay: Antibacterial activity against Kocuria rhizophila NBRC 12708 after 24 hrs by serial two fold dilution method; assay type: functional; details: NBRC 12708, 24 h
[9] = Inhibition of Magnaporthe grisea Guy 11 ICL; design: species or system Pyricularia grisea
[10] = tested on: K562; assay: Cytotoxicity against human K562 cells by MTT assay; assay type: functional; details: read-out: LC50 (the source's name)
[11] = molecular target: Sodium/potassium-transporting ATPase; assay: Inhibition of KCl-stimulated Na+/K+-ATPase in human placental membrane vesicles measured for 60 secs by 3-O-methylfluorescein phosphate dye based fluorometric method; assay type: cell membranes, Placenta

Compound | MIC [1] [µg/mL] | CC50 [2] [µM] | IC50 [3] [µM] | MIC [4] [µg/mL] | MIC [5] [µg/mL] | MIC [6] [µg/mL] | MIC [7] [µg/mL] | MIC [8] [µg/mL] | IC50 [9] [µM] | CC50 [10] [µM] | IC50 [11] [µM]
O[C@@H]1CC[C@@]23C[C@]45CN6CCCC/C=C\CC[C@](O)(C=C(c7nccc8c7[nH]c7ccccc78)[C@@H]4CC6)[C@@H]5N2CC[C@@H]1O[C@@]12CC[C@@H](O3)[C@@H](O)CCN1[C@@H]1[C@]3(CN4CCCC/C=C\CC[C@]1(O)C=C(c1nccc5c1[nH]c1ccccc15)[C@@H]3CC4)C2 | > 100 | 13 | > 150 | 0.78 (≈ 0.672 µM) | 1.6 (≈ 1.38 µM) | > 100 | > 100 | 1.6 (≈ 1.38 µM) | 27 | 12 | > 150
C1=C\CC[C@]23O[C@H]2[C@@H](c2nccc4c2[nH]c2ccccc24)[C@@H]2CCN(CCCC/1)C[C@@]21CCCCCCCCN[C@H]13 | > 100 | 6.5 | > 150 | 50 (≈ 90.4 µM) | 100 (≈ 181 µM) | > 100 | > 100 | 100 (≈ 181 µM) | > 150 | 9.6 | > 150
Cl.[O-][n+]1ccc2c([nH]c3ccccc32)c1C1=C[C@@]2(O)CC/C=C\CCCCN3CC[C@@H]1[C@]1(CC/C=C\CCCCN[C@H]12)C3 | > 100 | 4.7 | 81 | 32 | > 100 | > 100 | 32 | > 100 | 26 | 8.1 | > 150
O[C@H]1/C=C\[C@H]2C[C@]34CN5CCCC/C=C\CC[C@](O)(C=C(c6nccc7c6[nH]c6ccccc67)[C@@H]3CC5)[C@@H]4N2CCC1 | 13 (≈ 23 µM) | 5.8 | > 150 | 1.6 (≈ 2.83 µM) | 6.3 (≈ 11.2 µM) | > 100 | 25 (≈ 44.3 µM) | 6.3 (≈ 11.2 µM) | 140 | 7.2 | > 150
Cl.[O-][N+]1=C(C2=C[C@@]3(O)CC/C=C\CCCCN4CC[C@@H]2[C@]2(CC/C=C\CCCCN[C@H]23)C4)c2[nH]c3ccccc3c2CC1 | 32 | 5.7 | > 150 | > 100 | 64 | > 100 | 32 | 64 | > 150 | 9.5 | 110
O[C@]12C=C(c3nccc4c3[nH]c3ccccc34)[C@@H]3CCN(CCCC/C=C\CC1)C[C@@]31C[C@@H]3C=C[C@H]4CCC[N@+]43[C@H]12.[Cl-] | 8 | 4.6 |  | 16 | 32 | 64 | 8 | 16 | > 150 | 7.2 | > 150
Cn1cncc1C(=O)c1nccc2c1[nH]c1ccccc12 | > 100 | 12 | > 150 | 25 (≈ 90.5 µM) | 50 (≈ 181 µM) | > 100 | > 100 | 25 (≈ 90.5 µM) | > 150 | 13 | > 150
Cn1cncc1C(=O)C1=NCCc2c1[nH]c1ccccc21 | 50 (≈ 180 µM) | 9.9 | > 150 | 6.3 (≈ 22.6 µM) | 25 (≈ 89.8 µM) | > 100 | 50 (≈ 180 µM) | 25 (≈ 89.8 µM) | 75 | 9.2 | > 150
O=C(O)CC[N+](=O)[O-] |  |  |  |  |  |  |  |  | 19 |  | 
O[C@@H]1CCCN2[C@@H](CC1)C[C@]13CN4CCCC/C=C\CC[C@](O)(C=C(c5nccc6c5[nH]c5ccccc56)[C@@H]1CC4)[C@H]23 [32,33-DIHYDRO-31-HYDROXYMANZAMINE A] | 100 (≈ 176 µM) | 8.2 | > 150 | 1.6 (≈ 2.82 µM) | 25 (≈ 44.1 µM) | > 100 | 50 (≈ 88.2 µM) | 13 (≈ 22.9 µM) | 68 | 8.4 | > 150
CC1(C)S[C@@H]2[C@H](NC(=O)[C@H](N)c3ccccc3)C(=O)N2[C@H]1C(=O)O [AMPICILLIN] | 1.6 (≈ 4.58 µM) |  |  | 0.39 (≈ 1.12 µM) | 0.78 (≈ 2.23 µM) | 6.3 (≈ 18 µM) | 0.39 (≈ 1.12 µM) | 0.39 (≈ 1.12 µM) |  |  | 
COc1cccc2c1C(=O)c1c(O)c3c(c(O)c1C2=O)C[C@@](O)(C(=O)CO)C[C@@H]3O[C@H]1C[C@H](N)[C@H](O)[C@H](C)O1 [DOXORUBICIN] |  | 0.92 |  |  |  |  |  |  |  | 1.1 | 
O[C@]12C=C(c3nccc4c3[nH]c3ccccc34)[C@@H]3CCN(CCCC/C=C\CC1)C[C@@]31C[C@@H]3/C=C\CCCCN3[C@H]12 [MANZAMINE A] | > 100 | 8.3 | > 150 | 3.1 (≈ 5.65 µM) | 50 (≈ 91.1 µM) | > 100 | > 100 | 50 (≈ 91.1 µM) | 140 | 11 | > 150
